Reference: article PMC5049785, “Characterization of Novel Antimalarial Compound ACT-451840: Preclinical Assessment of Activity and Dose–Efficacy Modeling” (PLoS Medicine, 2016)
“Also recorded” adds a separate entry of the source. Read-outs that look alike come from different tables or passages of the source.

Tests used:
[1] = test system: P. falciparum W2 (Vietnam); experiment: [3H]-hypoxanthine incorporation assay, W2; assay type: cell-based, Plasmodium falciparum; conditions: read-out: 50% inhibitory concentration (IC50); W2, resistance CQ, SUL, PYR, CYC; mean ± SD
[2] = test system: P. falciparum V1/S (Vietnam); experiment: [3H]-hypoxanthine incorporation assay, V1/S; assay type: cell-based, Plasmodium falciparum; conditions: read-out: 50% inhibitory concentration (IC50); V1/S, resistance CQ, SUL, PYR, CYC; mean ± SD
[3] = test system: P. falciparum strain 3D7 (MR4); experiment: In vitro parasite reduction ratio (PRR) assay; assay type: cell-based, Plasmodium falciparum
Protocol: In vitro PRR testing was conducted at GSK (Tres Cantos, Madrid, Spain) as previously described. The assay used the limiting dilution technique to quantify the number of parasites that remained viable after drug treatment. […] Parasites were treated for 120 h. Drug in culture medium was renewed daily over the entire treatment period. […] To quantify the number of viable parasites after treatment, 3-fold serial dilutions were used with the above mentioned samples after removing the drug. Four independent serial dilutions were performed with each sample to correct experimental variations. The number of viable parasites was determined after 21 and 28 d by counting the number of wells with growth using [^3H]-hypoxanthine incorporation. The number of viable parasites was back-calculated by using the formula X^n-1 where n is the number of wells able to render growth and X the dilution factor (when n = 0, number of viable parasites is estimated as zero). […] The parasite clearance time to kill 99.9% of the initial population was determined using a regression calculated on the log-linear phase of the parasite reduction, taking into account the lag phase.

[4] = test system: P. falciparum NF54 female gametocytes; experiment: P. falciparum dual gamete formation assay, female; assay type: cell-based, Plasmodium falciparum; conditions: up to a concentration of 20 μM, 24 h incubation
Protocol: Mature P. falciparum NF54 gametocytes were cultured at Imperial College London (London, United Kingdom), as previously described. […] Male gamete formation was quantified by computer-aided automated identification and counting of exflagellation centers. Female gamete formation was visualized by live immunofluorescence with a Cy3-conjugated antibody specific for Pfs25—a female gamete expressed surface protein. […] IC50 values were calculated using GraphPad Prism version 6 using the logarithmic versus normalized response (variable slope) function (Graphpad Software, San Diego, US).

[5] = test system: P. falciparum stage V gametocytes / oocysts in Anopheles stephensi; experiment: Standard membrane feeding assay, indirect mode; assay type: cell-based, Plasmodium falciparum; conditions: 24 h pre-exposure of gametocytes
Protocol: ACT-451840 was tested in the standard membrane feeding assay at TropIQ (Nijmegen, The Netherlands) in two modes, as previously described. In the direct mode, the compound was directly added to a bloodmeal containing mature stage V gametocytes that was fed to Anopheles stephensi mosquitoes. […] Seven days after the bloodmeal, the number of oocysts in the midgut was determined by microscopy for both modes. […] Vehicle control (0.1% DMSO) and positive control (10 μM dihydroartemisinin) were included. Twenty mosquitoes were dissected per sample, and oocyst load was analyzed per mosquito.

[6] = Single compartment PK model with saturable absorption (predicted blood PK); design: species or system mice; conditions: for Time over threshold (h), predicted: threshold 1,000 ng/mL
Protocol: In order to analyze the PK/PD relationship, drug exposure was predicted for all tested doses in P. berghei mouse model using a single compartment model with saturable absorption based on the concentration–time profile observed after 10, 100, and 300 mg/kg single-dose regimen in healthy mice.

[7] = Blood concentrations in P. berghei infected mice; assay type: in vivo; conditions: 1, 4, 24 h after first dose of triple-dose regimen
Protocol: To assess the PK parameters in infected mice, blood samples were taken at 1, 4, and 24 h after the first dose of a triple-dose regimen in the P. berghei efficacy studies. The employed doses were 15 or 30 mg/kg bis in die (b.i.d.), and 30, 50, 100, 300 mg/kg quaque die (q.d.) (n = 3/timepoint and dose).

[8] = Reverse mutation test in vitro
[9] = Chromosome aberration study in vitro
[10] = General oral toxicity study up to 4 wk, dogs; assay type: in vivo
[11] = mouse PK model parameter estimate
[12] = single-dose regimen, oral 10 mg/kg
[13] = single-dose regimen, oral 15 mg/kg
[14] = single-dose regimen, oral 20 mg/kg
[15] = single-dose regimen, oral 25 mg/kg
[16] = single-dose regimen, oral 30 mg/kg
[17] = single-dose regimen, oral 60 mg/kg
[18] = single-dose regimen, oral 80 mg/kg
[19] = single-dose regimen, oral 100 mg/kg
[20] = single-dose regimen, oral 300 mg/kg
[21] = triple-dose regimen, oral 3 mg/kg once per day
[22] = triple-dose regimen, oral 10 mg/kg once per day
[23] = triple-dose regimen, oral 30 mg/kg once per day
[24] = triple-dose regimen, oral 50 mg/kg once per day
[25] = triple-dose regimen, oral 100 mg/kg once per day
[26] = triple-dose regimen, oral 300 mg/kg once per day
[27] = triple-dose regimen, oral 2 x 15 mg/kg (twice per day)
[28] = triple-dose regimen, oral 2 x 30 mg/kg (twice per day)

SMILES: CC(=O)N1CCN(c2ccc(CN(C(=O)/C=C/c3ccc(C(C)(C)C)cc3)[C@@H](Cc3ccccc3)C(=O)N3CCN(Cc4ccc(C#N)cc4)CC3)cc2)CC1 [ACT-451840]
- IC50 [1]: 0.2 ± 0.1 nM
- IC50 [2]: 0.3 nM
- lag phase in the killing curve ([3]; 10 x IC50): without lag phase
- parasite clearance time to kill 99.9% of the initial population ([3]; 10 x IC50): 28 h
- log PRR ([3]; 10 x IC50, decrease in viable parasites over 48 h): 4.4
- PRR ([3]; asexual blood stage forms): > 4 log per parasite cycle
- effect on functional viability of female gametocytes (Pfs25 expression) [4]: no activity; also recorded: no effect
- IC50 ([5]; oocysts counted 7 d after bloodmeal, read-out: IC50 oocyst development in the mosquito (oocyst intensity)): 30 nM
- IC50 ([5]; read-out: IC50 prevalence of infection (number of infected mosquitoes)): 104 nM
- total AUC giving an ED90 ([6]; P. berghei model, triple-dose regimen of 13 mg/kg): 16,300 ng*h/mL
- Clearance/bioavailability [6, 11]: 2.4 L/h
- Concentration at half the maximal absorption [6, 11]: 64000 ng/mL
- Max Absorption [6, 11]: 21 µg/h/kg
- Volume of distribution/bioavailability [6, 11]: 4.3 L/kg
- Cmax (ng/mL), predicted [6, 12]: 617 ng/mL
- Tmax (h), predicted [6, 12]: 3 h
- Total AUC over the treatment period (ng/mL*h), predicted [6, 12]: 4170 ng·h/mL
- Time over threshold (h), predicted [6, 12]: 0 h
- Cmax (ng/mL), predicted [6, 13]: 901 ng/mL
- Tmax (h), predicted [6, 13]: 3 h
- Total AUC over the treatment period (ng/mL*h), predicted [6, 13]: 6260 ng·h/mL
- Time over threshold (h), predicted [6, 13]: 0 h
- Cmax (ng/mL), predicted [6, 14]: 1170 ng/mL
- Tmax (h), predicted [6, 14]: 3 h
- Total AUC over the treatment period (ng/mL*h), predicted [6, 14]: 8350 ng·h/mL
- Time over threshold (h), predicted [6, 14]: 0 h
- Cmax (ng/mL), predicted [6, 15]: 1420 ng/mL
- Tmax (h), predicted [6, 15]: 3 h
- Total AUC over the treatment period (ng/mL*h), predicted [6, 15]: 10400 ng·h/mL
- Time over threshold (h), predicted [6, 15]: 0 h
- Cmax (ng/mL), predicted [6, 16]: 1670 ng/mL
- Tmax (h), predicted [6, 16]: 3 h
- Total AUC over the treatment period (ng/mL*h), predicted [6, 16]: 12500 ng·h/mL
- Time over threshold (h), predicted [6, 16]: 0 h
- Cmax (ng/mL), predicted [6, 17]: 2900 ng/mL
- Tmax (h), predicted [6, 17]: 4 h
- Total AUC over the treatment period (ng/mL*h), predicted [6, 17]: 25100 ng·h/mL
- Time over threshold (h), predicted [6, 17]: 7 h
- Cmax (ng/mL), predicted [6, 18]: 3540 ng/mL
- Tmax (h), predicted [6, 18]: 4 h
- Total AUC over the treatment period (ng/mL*h), predicted [6, 18]: 33400 ng·h/mL
- Time over threshold (h), predicted [6, 18]: 9 h
- Cmax (ng/mL), predicted [6, 19]: 4090 ng/mL
- Tmax (h), predicted [6, 19]: 6 h
- Total AUC over the treatment period (ng/mL*h), predicted [6, 19]: 41800 ng·h/mL
- Time over threshold (h), predicted [6, 19]: 11 h
- Cmax (ng/mL), predicted [6, 20]: 6690 ng/mL
- Tmax (h), predicted [6, 20]: 6.5 h
- Total AUC over the treatment period (ng/mL*h), predicted [6, 20]: 126000 ng·h/mL
- Time over threshold (h), predicted [6, 20]: 24 h
- Cmax (ng/mL), predicted [6, 21]: 192 ng/mL
- Tmax (h), predicted [6, 21]: 27 h
- Total AUC over the treatment period (ng/mL*h), predicted [6, 21]: 3750 ng·h/mL
- Time over threshold (h), predicted [6, 21]: 0 h
- Cmax (ng/mL), predicted [6, 22]: 617 ng/mL
- Tmax (h), predicted [6, 22]: 27 h
- Total AUC over the treatment period (ng/mL*h), predicted [6, 22]: 12500 ng·h/mL
- Time over threshold (h), predicted [6, 22]: 0 h
- Cmax (ng/mL), predicted [6, 23]: 1,670 ng/mL
- Tmax (h), predicted [6, 23]: 51 h
- Total AUC over the treatment period (ng/mL*h), predicted [6, 23]: 37600 ng·h/mL
- Time over threshold (h), predicted [6, 23]: 0 h
- Cmax (ng/mL), predicted [6, 24]: 2530 ng/mL
- Tmax (h), predicted [6, 24]: 27 h
- Total AUC over the treatment period (ng/mL*h), predicted [6, 24]: 62700 ng·h/mL
- Time over threshold (h), predicted [6, 24]: 16 h
- Cmax (ng/mL), predicted [6, 25]: 4100 ng/mL
- Tmax (h), predicted [6, 25]: 52 h
- Total AUC over the treatment period (ng/mL*h), predicted [6, 25]: 125000 ng·h/mL
- Time over threshold (h), predicted [6, 25]: 32 h
- Cmax (ng/mL), predicted [6, 26]: 6830 ng/mL
- Tmax (h), predicted [6, 26]: 54 h
- Time over threshold (h), predicted [6, 26]: 72 h
- Cmax (ng/mL), predicted [6, 27]: 1060 ng/mL
- Tmax (h), predicted [6, 27]: 35 h
- Total AUC over the treatment period (ng/mL*h), predicted [6, 27]: 37600 ng·h/mL
- Time over threshold (h), predicted [6, 27]: 0 h
- Cmax (ng/mL), predicted [6, 28]: 1980 ng/mL
- Tmax (h), predicted [6, 28]: 59 h
- Total AUC over the treatment period (ng/mL*h), predicted [6, 28]: 75200 ng·h/mL
- Time over threshold (h), predicted [6, 28]: 8 h
- blood concentration in infected mice compared to healthy mice [7]: No significant difference
- genotoxicity, reverse mutation test [8]: not genotoxic
- genotoxicity, chromosome aberration study [9]: not genotoxic
- no-observed-adverse-effect level ([10]; oral): 100 mg/kg/day
- local gastrointestinal toxicity ([10]; oral up to 1,000 mg/kg/day): no evidence of local gastrointestinal toxicity
